Test results as given in ChEMBL document CHEMBL1201862, “PubChem BioAssay data set” (2004).
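Cells were grown in 96-well plates and exposed to each compound for 48 hours at five concentrations; endpoints were interpolated linearly between bracketing concentrations, or set to the highest concentration if not reached. GI50 is the concentration that inhibits growth by half.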 The source made the active and inactive calls. No stated cut-off is given here; in the data, active = GI50 up to about 1.1 µM and inactive = higher.

Tests used:
Assay in all cases: NCI anticancer screen, dose series, 48 h
[1] = tested on: UACC-257
[2] = tested on: LOX IMVI
[3] = tested on: PC-3
[4] = tested on: HL-60
[5] = tested on: NCI-H460
[6] = tested on: 786-0
[7] = tested on: COLO 205
[8] = tested on: HT-29
[9] = tested on: SF-539
[10] = tested on: MDA-MB-435
[11] = tested on: MCF7
[12] = tested on: DU-145
[13] = tested on: K562
[14] = tested on: UACC-62
[15] = tested on: SNB-19
[16] = tested on: IGROV-1
[17] = tested on: MDA-N
[18] = tested on: RPMI-8226
[19] = tested on: SF-295
[20] = tested on: A498

Measured: GI50

COc1cc(C2SCC(=O)N2Cc2ccccc2)cc(OC)c1OC (stereo not drawn)
inactive: [1] > 100 µM | [2] > 100 µM | [3] > 100 µM | [4] > 100 µM | [5] > 100 µM | [6] > 100 µM | [7] > 100 µM | [8] > 100 µM | [9] > 100 µM | [10] > 100 µM | [11] > 100 µM | [12] 22.1 µM | [13] > 100 µM | [14] 97.9 µM | [15] > 100 µM | [16] 84.3 µM | [17] > 100 µM | [18] > 100 µM | [19] > 100 µM

CC12CCC3c4cc(Br)c(O)c(Br)c4CCC3C1CCC2O (stereo not drawn)
inactive: [1] 17.8 µM | [2] 18.1 µM | [3] 29.4 µM | [4] 14.8 µM | [6] 18.7 µM | [7] 25.2 µM | [8] 15.4 µM | [9] 18.5 µM | [10] 4.23 µM | [11] 27.2 µM | [12] 34.9 µM | [13] 6.18 µM | [14] 14 µM | [16] 15.8 µM | [20] 18.7 µM | [17] 3.98 µM | [19] 16.3 µM

OCCOCn1cc(Cn2ncc3c(SCc4ccccc4)ncnc32)nn1
inactive: [1] 53.7 µM | [2] 61.7 µM | [3] 69 µM | [4] 13.7 µM | [5] 38.3 µM | [6] 48.4 µM | [7] 31.3 µM | [8] 38.2 µM | [9] 39 µM | [10] 15.5 µM | [11] 43.6 µM | [12] 43.7 µM | [13] 20.4 µM | [14] 37.1 µM | [15] 85.7 µM | [16] 53.2 µM | [20] 34.4 µM | [17] 14.4 µM | [19] 45.1 µM

Cc1ncc([N+](=O)[O-])n1CCNC(=O)CCCCn1ccnc1[N+](=O)[O-]
inactive: [1] > 100 µM | [3] > 100 µM | [4] > 100 µM | [5] > 100 µM | [6] > 100 µM | [7] 36.3 µM | [8] > 100 µM | [9] > 100 µM | [10] > 100 µM | [11] > 100 µM | [12] > 10 µM | [13] > 100 µM | [14] > 100 µM | [15] > 100 µM | [16] > 100 µM | [20] > 100 µM | [17] > 100 µM | [19] > 100 µM
